Reference: article PMC10369073, “Production, identification, in silico analysis, and cytoprotection on H2O2-induced HUVECs of novel angiotensin-I-converting enzyme inhibitory peptides from Skipjack tuna roes” (Frontiers in Nutrition, 2023)
Ends that are not written are not given here. Peptide text beside a SMILES is read from it.

What was measured:
ACE = target: T1, ACE (Oryctolagus cuniculus, UniProt P12822); assay: ACE inhibitory (ACEi) activity, FAPGG substrate, hippuric acid by HPLC at 228 nm; format: biochemical; settings: at 1.5 mg/mL, mean ± SD, n = 3
T1 sequence (P12822 34-1310): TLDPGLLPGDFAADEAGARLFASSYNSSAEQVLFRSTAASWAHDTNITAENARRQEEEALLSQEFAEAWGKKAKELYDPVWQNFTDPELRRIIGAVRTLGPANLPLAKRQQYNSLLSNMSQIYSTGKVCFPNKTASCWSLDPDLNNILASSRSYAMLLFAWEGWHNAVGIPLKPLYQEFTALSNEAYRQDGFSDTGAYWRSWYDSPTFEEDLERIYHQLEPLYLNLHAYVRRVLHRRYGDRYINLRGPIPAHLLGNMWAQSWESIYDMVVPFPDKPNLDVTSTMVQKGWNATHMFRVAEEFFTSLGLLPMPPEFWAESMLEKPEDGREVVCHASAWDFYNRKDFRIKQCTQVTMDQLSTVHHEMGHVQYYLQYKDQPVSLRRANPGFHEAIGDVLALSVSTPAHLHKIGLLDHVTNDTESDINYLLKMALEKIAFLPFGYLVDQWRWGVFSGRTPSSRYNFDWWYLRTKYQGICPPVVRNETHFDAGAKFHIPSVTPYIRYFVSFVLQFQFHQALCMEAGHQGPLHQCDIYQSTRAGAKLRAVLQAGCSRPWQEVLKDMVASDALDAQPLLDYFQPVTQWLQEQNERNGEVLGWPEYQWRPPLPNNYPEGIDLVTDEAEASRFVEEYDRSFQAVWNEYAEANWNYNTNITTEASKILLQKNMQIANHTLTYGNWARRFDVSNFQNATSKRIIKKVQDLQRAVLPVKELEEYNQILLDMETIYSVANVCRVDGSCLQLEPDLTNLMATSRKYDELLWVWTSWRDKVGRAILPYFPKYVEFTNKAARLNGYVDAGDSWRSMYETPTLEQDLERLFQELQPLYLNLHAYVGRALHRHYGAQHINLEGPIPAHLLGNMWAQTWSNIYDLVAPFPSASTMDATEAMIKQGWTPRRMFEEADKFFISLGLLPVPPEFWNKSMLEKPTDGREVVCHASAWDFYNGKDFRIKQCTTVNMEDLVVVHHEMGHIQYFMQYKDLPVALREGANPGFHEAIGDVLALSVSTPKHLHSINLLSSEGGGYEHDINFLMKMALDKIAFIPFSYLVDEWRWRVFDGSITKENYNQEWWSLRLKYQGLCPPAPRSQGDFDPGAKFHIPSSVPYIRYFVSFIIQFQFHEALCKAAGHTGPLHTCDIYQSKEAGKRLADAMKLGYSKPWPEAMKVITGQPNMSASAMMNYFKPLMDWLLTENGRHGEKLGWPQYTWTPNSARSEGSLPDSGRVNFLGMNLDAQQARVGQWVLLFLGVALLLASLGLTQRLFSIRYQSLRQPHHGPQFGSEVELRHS
Description: The ACEi activity was measured by employing FAPGG as the substrate with the following modifications reported by Zhao et al. ([18]). In brief, the initial assay volume consisted of 50 μL of the substrate (3 mM), 50 μL of the ACE enzyme solution containing 1.25 mU of declared enzyme activity, and 50 μL of assay sample. All these solutions were incubated for 30 min at 37°C in a water bath first without mixing and then for an additional 30 min after mixing. ACE activity was stopped by 150 μL of glacial acetic acid. After that, the reaction mixture was separated by HPLC at 228 nm to determine the hippuric acid (HA) content produced due to ACE activity on the substrate. The control reaction mixture contained 50 μL of buffer instead of the assay sample and the control was expected to liberate the maximum amount of HA from the substrate due to uninhibited ACE activity. The percent inhibition of ACE activity was calculated as follows:
Inhibition activity(%)=[(HAcontrol−HAsample)/HAcontrol]×100%.
The IC50 value is the concentration of peptide inhibiting 50% activity of ACE.

HUVECs [1] = assay: NO production in HUVECs (assay kit); format: cell-based, human; settings: for NO content in NE-treated HUVECs: peptide 200 μM plus NE, NE alone 18.59 ± 0.82 μM; for NO level in HUVECs: peptide 200 μM, 24 h, control 33.68 ± 0.96 μM, mean ± SD, n = 3, SD
Description: (§1) HUVECs were cultured in DMEM supplemented with 100 µg/mL streptomycin, 10% FBS (v/v), and 100 U/mL penicillin at 37°C in a humidified 5% CO2 atmosphere for 24 h.
(§2) After treating with ACEi peptides (TRP3, TRP6, TRP9, or TRP12, respectively) for 24 h, NO and ET-1 contents were separately determined by employing human NO and ET-1 assay kit as per manufactures’ protocol ([18]).

HUVECs [2] = assay: ET-1 secretion in HUVECs (assay kit); format: cell-based, human; settings: for ET-1 content in NE-treated HUVECs: peptide 200 μM plus NE, NE alone 73.57 ± 3.09 pg./mL; for ET-1 content in HUVECs: peptide 200 μM, control 55.37 ± 2.53 pg./mL, mean ± SD, n = 3, SD
Description: as §1, §2

H2O2-induced HUVECs [3] = assay: ROS level in H2O2-induced HUVECs, DCFH2-DA assay; format: cell-based, human; settings: 200 μM pretreatment, 300 μM H2O2, model 146.6 ± 3.81%, mean ± SD, n = 3
Description: (§3) The HUVECs were cultured for 24 h in a 96-well plate. Subsequently, the supernatant was aspirated and 20 μL of GSH (200 μM) and ACEi peptides (100 or 200 μM) were added in the protection groups, respectively. After 24 h, ACEi peptides were removed and H2O2 with the final concentration of 300 μM was added into the damage and protection groups for incubating 24 h.
(§4) The level of ROS was determined using DCFH2-DA assay and expressed as % control ([50]). The levels of SOD (U/mgprot), GSH-Px (U/mgprot), NO (μmol/L), and MDA (nmol/mgprot) were measured using assay kits according to manufacturer’ protocols.

H2O2-induced HUVECs [4] = assay: SOD activity in H2O2-induced HUVECs (assay kit); format: cell-based, human; settings: 200 μM pretreatment, 300 μM H2O2, model 108.57 ± 7.56, mean ± SD, n = 3
Description: as §3, §4

H2O2-induced HUVECs [5] = assay: GSH-Px activity in H2O2-induced HUVECs (assay kit); format: cell-based, human; settings: 200 μM pretreatment, 300 μM H2O2, model 26.95 ± 1.09, mean ± SD, n = 3
Description: as §3, §4

H2O2-induced HUVECs [6] = assay: NO production in H2O2-induced HUVECs (assay kit); format: cell-based, human; settings: 200 μM pretreatment, 300 μM H2O2, model 15.54 ± 0.68 μM, mean ± SD, n = 3
Description: as §3, §4

H2O2-induced HUVECs [7] = assay: MDA content in H2O2-induced HUVECs (assay kit); format: cell-based, human; settings: 200 μM pretreatment, 300 μM H2O2, model 27.94 ± 1.06, mean ± SD, n = 3
Description: as §3, §4

H2O2-induced HUVECs [8] = assay: Apoptosis rate of H2O2-induced HUVECs, Hoechst 33342; format: cell-based, human; settings: 200 μM pretreatment, 300 μM H2O2, model 214.03 ± 7.11% control, mean ± SD, n = 3
Description: as §3
Cell treatments with ACEi peptides, GSH, and H2O2 were according to the above method ([50]). The morphology of HUVECs was observed and photographed using an inverted microscope (Nikon Corporation, Kyoto, Japan). The percentage of apoptotic HUVECs was analyzed using previous methods ([17], [50]).

H2O2-induced HUVECs [9] = assay: Viability of H2O2-induced HUVECs (oxidative damage model); format: cell-based, human; settings: for cell viability of H2O2-induced HUVECs: 200 μM pretreatment 24 h, then 300 μM H2O2 24 h, model group 50.31 ± 2.19%, mean ± SD, n = 3, SD
Description: (§5) The viability of HUVECs treated by TRP3, TRP6, TRP9, and TRP12 was determined using MTT method. HUVECs were seeded in the 96-well plates, cultured for 24 h, and treated with ACEi peptides (100, 200, and 300 μM) at 37° C for 24 h. MTT (final content of 2 mg/mL) was added into cell culture. After 4 h, DMSO was added into each well and monitored at 490 nm. The cell viability (% control) was calculated.
The oxidative damage model of HUVECs was established according to the previous method ([50]). HUVECs were seeded in the 96-well plates, cultured for 24 h, and treated with […] H2O2 at 37°C.
as §3

HUVECs [10] = assay: Viability of HUVECs, MTT method; format: cell-based, human
Description: as §1, §5

Row | Compound | ACEi rate (ACEi activity) (ACE) | NO content in NE-treated HUVECs (HUVECs [1]) | NO level in HUVECs (HUVECs [1]) | ET-1 content in NE-treated HUVECs (HUVECs [2]) | ET-1 content in HUVECs (HUVECs [2]) | ROS level (H2O2-induced HUVECs [3]) | SOD activity (H2O2-induced HUVECs [4]) | GSH-Px activity (H2O2-induced HUVECs [5]) | NO content (H2O2-induced HUVECs [6]) | MDA content (H2O2-induced HUVECs [7]) | total apoptosis ratio (H2O2-induced HUVECs [8]) | cell viability of H2O2-induced HUVECs (H2O2-induced HUVECs [9]) | viability of HUVECs (H2O2-induced HUVECs [9]; H2O2 300 μM alone (model establishment)) | cell viability (HUVECs [10]; 300 μM, 24 h, MTT, % control, mean ± SD, n = 3) | cell viability (HUVECs [10]; 300 µM, SD)
1 | CC[C@H](C)[C@H](N)C(=O)N[C@@H](CCCCN)C(=O)N[C@@H](CO)C(=O)N[C@@H](Cc1c[nH]c2ccccc12)C(=O)O [TRP6, Ile-Lys-Ser-Trp] (H-IKSW-OH; N-terminus and C-terminus assumed) | 75.41 ± 2.56% | 26.51 ± 1.06 µM | 46.25 ± 1.39 µM | 55.27 ± 2.19 pg/mL | 44.68 ± 1.69 pg/mL | 127.5 ± 4.32 % control | 160.02 ± 9.04 U/mg prot | 42.35 ± 1.86 U/mg prot | 21.26 ± 0.59 µM | 20.52 ± 0.92 nmol/mg prot | 171.21 ± 6.92 % control | – | – | – | –
2 | WSPGF [TRP12, Trp-Ser-Pro-Gly-Phe] | 78.24 ± 2.81% | 26.79 ± 1.34 µM | 46.32 ± 2.03 µM | 54.71 ± 2.57 pg/mL | 45.28 ± 1.88 pg/mL | 123.7 ± 3.21 % control | – | 39.75 ± 1.63 U/mg prot | 22.09 ± 0.81 µM | 21.08 ± 0.92 nmol/mg prot | 162.08 ± 5.94 % control | – | – | – | –
3 | N[C@@H](CCC(=O)N[C@@H](CS)C(=O)NCC(=O)O)C(=O)O [GSH, Glutathione, reference compound] | – | – | – | – | – | – | – | – | 26.98 ± 1.05 µM | 17.83 ± 0.87 nmol/mg prot | 124.52 ± 4.82 % control | 78.33 ± 3.08% | – | – | –
4 | OO [H2O2] | – | – | – | – | – | – | – | – | – | – | – | – | 49.65 ± 1.68% | – | –
5 | CSCC[C@H](NC(=O)[C@H](Cc1c[nH]cn1)NC(=O)[C@H](CO)NC(=O)[C@@H](N)Cc1ccc(O)cc1)C(=O)O [TRP9, Tyr-Ser-His-Met] (H-YSHM-OH) | 83.49 ± 3.42% | 28.79 ± 0.78 µM | 50.34 ± 1.45 µM | 53.27 ± 2.34 pg/mL | 41.26 ± 2.09 pg/mL | 122.4 ± 4.47 % control | – | 45.36 ± 2.07 U/mg prot | 23.64 ± 0.82 µM | 19.88 ± 0.75 nmol/mg prot | 135.37 ± 4.28 % control | 67.85 ± 3.05% | – | 91.27 ± 4.05% | –
6 | H-WGESF-OH [TRP3, Trp-Gly-Glu-Ser-Phe] | 69.54 ± 3.09% | 23.69 ± 1.18 µM | 46.52 ± 1.29 µM | 59.74 ± 2.42 pg/mL | 46.87 ± 2.03 pg/mL | 128.7 ± 5.2 % control | 154.58 ± 3.94 U/mg prot | 38.46 ± 1.25 U/mg prot | 20.38 ± 0.67 µM | 21.76 ± 0.94 nmol/mg prot | 173.12 ± 5.11 % control | – | – | – | 86.72 ± 4.45%
